Data as given in paper PMC11672562, “Synthesis and Antibacterial Activity of New 6″-Modified Tobramycin Derivatives” (Antibiotics, 2024).
In brackets after ≈: the same amount, converted by molar mass. Read-outs that look alike come from different tables or passages of the source.

Key:
[1] = system: E. coli JW5503; assay: MIC, broth microdilution, E. coli JW5503; assay type: cell-based; conditions: E. coli JW5503; Table 1
Experimental: (§1) The microbial strains used in this study were obtained from the collection of the Gause Institute of New Antibiotics. […] Storage was carried out in accordance with CLSI guidelines. Prior to experimentation, the bacterial strains were revived from cryopreservation by inoculating them onto trypticase soy agar (Becton, Dickinson, France) and incubating at (36 ± 1) °C for 16–24 h. Individual morphologically homogeneous colonies were then suspended in sterile physiological saline, and the turbidity of the suspension was adjusted to 0.5 McFarland units using a DEN-1 spectrophotometer (Biosan, Riga, Latvia), which corresponds to a concentration of 1.5 × 10^8 CFU/mL.
(§2) The samples were dissolved in sterile distilled water or dimethyl sulfoxide (DMSO), depending on the physicochemical properties of the compounds under investigation, to a concentration of 10,000 µg/mL.
(§3) Activity was evaluated by determining the minimum inhibitory concentration (MIC) values using the microdilution method in Mueller–Hinton Broth (Beckton and Dickinson, Le Pont-de-Claix, France), in accordance with the standard procedure for assessing the antimicrobial susceptibility of microorganisms.
(§4) The analysis was conducted in 96-well microtiter plates (Medpolymer, Saint Petersburg, Russia). The bacterial inoculum was introduced within 15 min of preparation. […] Microbial growth in the presence of the tested compounds was compared to the growth control (without exposure to the test samples). The MIC was defined as the lowest concentration at which visible microbial growth was inhibited.

[2] = system: M. smegmatis ATCC 607; assay: MIC, broth microdilution, M. smegmatis ATCC 607; assay type: cell-based; conditions: Table 1
Experimental: as §1, §2, §3, §4

[3] = system: E. coli JW5503 transformed with pJC27 plasmids; assay: Translation accuracy reporter (mutant β-galactosidase, X-Gal staining); assay type: cell-based; conditions: 4a,b, 6a,b and tobramycin 50 mg/mL; streptomycin, kanamycin 5 mg/mL; rifampicin 1 mg/mL
From the text: It is known that tobramycin inhibits protein biosynthesis by the blocking of initiation and inducing translation errors. We have tested whether the new tobramycin derivatives 4a,b and 6a,b retain the ability to induce translation errors. This assay uses an E. coli strain with a plasmid construct that encodes beta-galactosidase in such a way that a functional protein is only synthesized in the presence of translation errors. If the mechanism of action of the antibiotic is related to the translation errors, we observe indigo blue staining along the edge of the inhibition zone because functional b-galactosidase degrades the substrate X-Gal. As a result, if the antibiotic causes translation errors, blue staining forms around the edge of the inhibition zone. […] According to this, an introduction at the 6″-position of the aminoalkylamino or guanidinoalkylamino residues of tobramycin retains an original mechanism of aminoglycoside’s antibacterial activity affecting the protein synthesis.
To qualitatively evaluate translation accuracy in the presence of antibiotics, E. coli JW5503 [34] (kanamycin resistance cassette removed as per) transformed with pJC27 plasmids was utilized. The plasmids encode the β-galactosidase gene containing a mutation in its active center (E537: GAA→GAC/GGG), alongside a control plasmid without the mutation. Active β-galactosidase synthesis could only occur if translation errors were introduced. Petri dishes (9 cm) containing 20 mL of solid LB agar (1.5%) supplemented with chloramphenicol (11.3 μg/mL) and X-Gal (80 μg/mL) were prepared. A secondary layer comprising 3.5 mL of LB agar (0.6%), supplemented with 11.3 μg/mL chloramphenicol and 0.5 mL of liquid culture (A600~1.0), was added and allowed to solidify. Antibiotics were applied to the plates in 1 μL aliquots at the following concentrations: 50 mg/mL for 4a, 4b, 6a, 6b, and tobramycin; 5 mg/mL for streptomycin and kanamycin; and 1 mg/mL for rifampicin. Plates were incubated at 37 °C for 18 h. […] Results were documented using a Samsung Galaxy Tab A71 camera.

[4] = system: P. aeruginosa ATCC 27853; assay: MIC, broth microdilution, P. aeruginosa ATCC 27853; assay type: cell-based
Experimental: The microbial strains used in this study were obtained from the collection of the Gause Institute of New Antibiotics. […] Storage was carried out in accordance with CLSI guidelines.
as §3, §4
(§5) The MIC values of the reference strains were required to fall within the acceptable ranges specified in [30], provided that standard assay conditions were maintained.

[5] = system: E. coli ATCC 25922; assay: MIC, broth microdilution, E. coli ATCC 25922; assay type: cell-based
Experimental: as §1, §2, §3, §4, §5

[6] = system: E. coli JW5503 kanS EF-G P610L; assay: MIC in LB medium, aminoglycoside-resistant mutant EF-G P610L; assay type: cell-based; conditions: 18 h
Experimental: (§6) The determination of the minimum inhibitory concentration (MIC) was performed on three strains from the working collection of MSU: E. coli JW5503 [34], which lacked a kanamycin resistance cassette removed as per the method outlined in [39], and two strains derived from this strain through in vivo selection with kanamycin. The latter strains harbored P610T and P610L substitutions in the fusA gene. For the MIC determination, 100 μL (rows 2–11) and 200 μL (row 1) of LB liquid medium containing a 1:1000 dilution of overnight culture was added to each well of a 96-well transparent plate. Subsequently, 2 μL of a 50 μg/mL antibiotic solution was introduced into the first row, and serial two-fold dilutions were performed across each horizontal row, decreasing the antibiotic concentration incrementally. The final two rows were designated as controls: row 12 contained LB medium without cells or antibiotics, and row 11 contained cells without antibiotics. Following 18 h of incubation at 37 °C with constant agitation, the optical density at 590 nm (A590) was measured using a Victor X5 2030 spectrofluorometer (PerkinElmer, Waltham, MA, USA). The MIC was defined as the antibiotic concentration in the first well where no cell growth occurred. Each experiment was conducted in triplicate for all tested antibiotics.

[7] = system: E. coli JW5503 kanS EF-G P610T; assay: MIC in LB medium, aminoglycoside-resistant mutant EF-G P610T; assay type: cell-based; conditions: 18 h
Experimental: as §6

[8] = system: E. coli JW5503 kanS; assay: MIC in LB medium, E. coli JW5503 kanS; assay type: cell-based; conditions: 18 h
Experimental: as §6

[9] = system: E. coli S30 Extract System, firefly luciferase synthesis; assay: Cell-free translation inhibition assay (firefly luciferase synthesis); assay type: biochemical; conditions: final concentration of 2 μM; water = 100
Experimental: The inhibitory effects of the tested compounds on in vitro firefly luciferase synthesis were evaluated using the E. coli S30 Extract System for Linear Templates (Promega, Madison, WI, USA), as described previously. Briefly, reaction mixtures with a total volume of 5 μL were prepared, containing 0.1 mM of a mixture of all canonical amino acids, 4 U of RiboLock RNase Inhibitor (Thermo Fisher Scientific, Waltham, MA, USA), and 2 μM of the tested compounds. After pre-incubation at room temperature for 5 min, 100 ng of in vitro-transcribed firefly luciferase mRNA was added. The mixtures were then incubated at 37 °C for 20 min. After incubation, each reaction was supplemented with 5 μL of Bright-Glo™ reagent (Promega, Madison, WI, USA), and chemiluminescence was measured using a VICTOR X5 Multilabel Plate Reader (PerkinElmer, Waltham, MA, USA). The luminescence values were normalized to the negative control (water), which was assigned 100% activity.

[10] = system: S. aureus ATCC 29213; assay: MIC, broth microdilution, S. aureus ATCC 29213; assay type: cell-based
Experimental: as §1, §2, §3, §4, §5

[11] = system: resistant clinical isolates of P. aeruginosa; assay: MIC against resistant clinical isolates of P. aeruginosa; assay type: cell-based; conditions: Pseudomonas aeruginosa, P. aeruginosa strain
Experimental: as §1, §2, §3, §4

[12] = quality control, must fall in acceptable ranges of [30]

**Q.** Which results are given for kanamycin A [reference compound]?
**A.** MIC [1]: 1 µg/mL; MIC [2]: 0.125 µg/mL; induction of translation errors (blue staining at edge of inhibition zone) [3]: acted as miscoding inductors; MIC ([4]; P. aeruginosa ATCC 27853, Table 1): >32 µg/mL; MIC ([4]; P. aeruginosa ATCC 27853, Table 1, listed as kanamycin): > 32 µg/mL; MIC ([5]; Table 1): 1 µg/mL; MIC of control antibiotic [5, 12]: 1 to 4 µg/mL; MIC ([6]; E. coli JW5503 kanS EF-G P610L, LB medium): 80 µg/mL; MIC ([7]; E. coli JW5503 kanS EF-G P610T, LB medium): 80 µg/mL; MIC ([8]; E. coli JW5503 kanS, LB medium): 5 µg/mL; % control signal (relative maximal rate of firefly luciferase accumulation in vitro) [9]: 0.1%; MIC ([10]; Table 1): 0.5 µg/mL; MIC of control antibiotic [10, 12]: 1 to 4 µg/mL

**Q.** CC[C@H]1OC(=O)[C@H](C)[C@@H](O[C@H]2C[C@@](C)(OC)[C@@H](O)[C@H](C)O2)[C@H](C)[C@@H](O[C@@H]2O[C@H](C)C[C@H](N(C)C)[C@H]2O)[C@](C)(O)C[C@@H](C)C(=O)[C@H](C)[C@@H](O)[C@]1(C)O [Erythromycin, erythromycin, reference compound] was tested. Which MIC ([6]; Escherichia coli) did it give?
**A.** The MIC was 2 µg/mL (≈ 2.73 µM).

**Q.** And the MIC ([7]; Escherichia coli)?
**A.** Its MIC is 2 µg/mL (≈ 2.73 µM).

**Q.** And the MIC ([8]; Escherichia coli, JW5503KANS)?
**A.** The MIC was 2 µg/mL (≈ 2.73 µM).

**Q.** What about the “% control signal (relative maximal rate of firefly luciferase accumulation in vitro)” value [9] of the same molecule?
**A.** The value was 0.8%.

**Q.** What does the source list for C[C@H]1[C@H](NC(=O)/C(=N\OC(C)(C)C(=O)O)c2csc(N)n2)C(=O)N1S(=O)(=O)O [Aztreonam, aztreonam, reference compound]?
**A.** MIC ([11]; Table 2 column 3, head prints 27853): 16 µg/mL (≈ 36.7 µM); MIC ([11]; Table 2 column 4, head prints 27853): 8 µg/mL (≈ 18.4 µM); MIC ([11]; Table 2 column 5, head prints 27853): 32 µg/mL (≈ 73.5 µM); MIC ([11]; Table 2 column 6, head prints 27853): 16 µg/mL (≈ 36.7 µM); MIC ([11]; Table 2 column 7, head prints 27853): 16 µg/mL (≈ 36.7 µM); MIC ([4]; Pseudomonas aeruginosa, ATCC27853, P. aeruginosa ATCC 27853, Table 2, read-out: MIC): 4 µg/mL (≈ 9.19 µM)

**Q.** [H]/N=C(/N)N[C@H]1[C@H](O)[C@@H](O)[C@H](O[C@@H]2O[C@@H](C)[C@](O)(C=O)[C@H]2O[C@@H]2O[C@@H](CO)[C@H](O)[C@@H](O)[C@@H]2NC)[C@@H](N/C(N)=N\[H])[C@@H]1O [streptomycin, reference compound] was tested. Which “induction of translation errors (blue staining at edge of inhibition zone)” value [3] did it give?
**A.** The value was “acted as miscoding inductors”.

**Q.** How did the “induction of translation errors (blue staining at edge of inhibition zone)” value [3] turn out when CO[C@H]1/C=C/O[C@@]2(C)Oc3c(C)c(O)c4c(O)c(c(/C=N/N5CCN(C)CC5)c(O)c4c3C2=O)NC(=O)/C(C)=C\C=C\[C@H](C)[C@H](O)[C@@H](C)[C@@H](O)[C@@H](C)[C@H](OC(C)=O)[C@@H]1C [Rifampicin, rifampicin, reference compound] was run?
**A.** The value was “does not induce ribosomal errors”.

**Q.** And the MIC ([6]; Escherichia coli)?
**A.** The MIC was 5 µg/mL (≈ 6.08 µM).

**Q.** What about the MIC ([7]; Escherichia coli) of the same molecule?
**A.** Its MIC is 5 µg/mL (≈ 6.08 µM).

**Q.** And the MIC ([8]; Escherichia coli, JW5503KANS)?
**A.** Its MIC is 5 µg/mL (≈ 6.08 µM).

**Q.** And the “% control signal (relative maximal rate of firefly luciferase accumulation in vitro)” value [9]?
**A.** The value was 87%.
